Experimental data reported in PubChem BioAssay (NCI).
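How tested: cells in 96-well plates exposed to compound for 48 hours at five concentrations. At the GI50, growth is halved. At the TGI there is no net growth.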

Assays:
Assay in all cases: DTP human tumour cell line panel, 48 h
IGROV1 ovarian = system: IGROV1 ovarian
K-562 leukemia = system: K-562 leukemia
SF-539 CNS = system: SF-539 CNS
HS 578T breast = system: HS 578T breast
LOX IMVI melanoma = system: LOX IMVI melanoma
NCI-H226 lung = system: NCI-H226 lung
KM12 colon = system: KM12 colon
OVCAR-4 ovarian = system: OVCAR-4 ovarian
A498 renal = system: A498 renal
CAKI-1 renal = system: CAKI-1 renal
DU-145 prostate = system: DU-145 prostate
SK-OV-3 ovarian = system: SK-OV-3 ovarian
PC-3 prostate = system: PC-3 prostate
M14 melanoma = system: M14 melanoma
SK-MEL-5 melanoma = system: SK-MEL-5 melanoma
UO-31 renal = system: UO-31 renal
MCF7 breast = system: MCF7 breast
HOP-62 NSCLC = system: HOP-62 NSCLC
MDA-MB-231 breast = system: MDA-MB-231 breast
SK-MEL-2 melanoma = system: SK-MEL-2 melanoma
NCI-H522 lung = system: NCI-H522 lung
T-47D breast = system: T-47D breast
HCC-2998 colon = system: HCC-2998 colon
EKVX NSCLC = system: EKVX NSCLC
U251 CNS = system: U251 CNS
MDA-MB-435 = system: MDA-MB-435
SW-620 colon = system: SW-620 colon
COLO 205 colon = system: COLO 205 colon
SK-MEL-28 melanoma = system: SK-MEL-28 melanoma
OVCAR-8 ovarian = system: OVCAR-8 ovarian
MOLT-4 leukemia = system: MOLT-4 leukemia
SF-295 CNS = system: SF-295 CNS
SF-268 CNS = system: SF-268 CNS
NCI/ADR-RES ovarian = system: NCI/ADR-RES ovarian
NCI-H460 lung = system: NCI-H460 lung
786-0 renal = system: 786-0 renal
HT29 colon = system: HT29 colon
OVCAR-3 ovarian = system: OVCAR-3 ovarian
RPMI-8226 leukemia = system: RPMI-8226 leukemia
SNB-75 CNS = system: SNB-75 CNS
SR leukemia = system: SR leukemia
MALME-3M melanoma = system: MALME-3M melanoma
BT-549 breast = system: BT-549 breast
ACHN renal = system: ACHN renal
RXF 393 renal = system: RXF 393 renal
HOP-92 NSCLC = system: HOP-92 NSCLC
HL-60(TB) leukemia = system: HL-60(TB) leukemia
HCT-15 colon = system: HCT-15 colon
OVCAR-5 ovarian = system: OVCAR-5 ovarian
HCT-116 colon = system: HCT-116 colon
UACC-62 melanoma = system: UACC-62 melanoma
SNB-19 CNS = system: SNB-19 CNS
A549 NSCLC = system: A549 NSCLC
SN12C renal = system: SN12C renal
UACC-257 melanoma = system: UACC-257 melanoma
TK-10 renal = system: TK-10 renal

SMILES: N#Cc1nc(-c2ccccc2)oc1S(=O)(=O)N1CCN(CCc2ccccn2)CC1
- GI50 (IGROV1 ovarian): 15.1 µM
- TGI (IGROV1 ovarian): 47.9 µM
- GI50 (K-562 leukemia): 0.562 µM
- TGI (K-562 leukemia): 7.78 µM
- GI50 (SF-539 CNS): 3.99 µM
- TGI (SF-539 CNS): 13.7 µM
- GI50 (HS 578T breast): 17.3 µM
- TGI (HS 578T breast): 61.9 µM
- GI50 (LOX IMVI melanoma): 1.22 µM
- TGI (LOX IMVI melanoma): 2.69 µM
- GI50 (NCI-H226 lung): 2.58 µM
- TGI (NCI-H226 lung): 7.78 µM
- GI50 (KM12 colon): 13.5 µM
- TGI (KM12 colon): 36.4 µM
- GI50 (OVCAR-4 ovarian): 2.91 µM
- TGI (OVCAR-4 ovarian): 9.94 µM
- GI50 (A498 renal): > 100 µM
- TGI (A498 renal): > 100 µM
- GI50 (CAKI-1 renal): 1.18 µM
- TGI (CAKI-1 renal): 2.41 µM
- GI50 (DU-145 prostate): 4.56 µM
- TGI (DU-145 prostate): 22.3 µM
- GI50 (SK-OV-3 ovarian): 30.4 µM
- TGI (SK-OV-3 ovarian): > 100 µM
- GI50 (PC-3 prostate): 12.3 µM
- TGI (PC-3 prostate): 26.7 µM
- GI50 (M14 melanoma): 2.29 µM
- TGI (M14 melanoma): 9.51 µM
- GI50 (SK-MEL-5 melanoma): 16.7 µM
- TGI (SK-MEL-5 melanoma): 32.4 µM
- GI50 (UO-31 renal): 2.64 µM
- TGI (UO-31 renal): 9.81 µM
- GI50 (MCF7 breast): 1.83 µM
- TGI (MCF7 breast): 10.2 µM
- GI50 (HOP-62 NSCLC): 20.8 µM
- TGI (HOP-62 NSCLC): 58.9 µM
- GI50 (MDA-MB-231 breast): 15.5 µM
- TGI (MDA-MB-231 breast): 34.4 µM
- GI50 (SK-MEL-2 melanoma): 12.4 µM
- TGI (SK-MEL-2 melanoma): 29.2 µM
- GI50 (NCI-H522 lung): 1.04 µM
- TGI (NCI-H522 lung): 2.36 µM
- GI50 (T-47D breast): 1.87 µM
- TGI (T-47D breast): 4.41 µM
- GI50 (HCC-2998 colon): 14.2 µM
- TGI (HCC-2998 colon): 28.9 µM
- GI50 (EKVX NSCLC): 23.3 µM
- TGI (EKVX NSCLC): 68.2 µM
- GI50 (U251 CNS): 13.5 µM
- TGI (U251 CNS): 27 µM
- GI50 (MDA-MB-435): 4.08 µM
- TGI (MDA-MB-435): 16.7 µM
- GI50 (SW-620 colon): 0.985 µM
- TGI (SW-620 colon): 2.7 µM
- GI50 (COLO 205 colon): 1.54 µM
- TGI (COLO 205 colon): 3.02 µM
- GI50 (SK-MEL-28 melanoma): 2.9 µM
- TGI (SK-MEL-28 melanoma): 9.42 µM
- GI50 (OVCAR-8 ovarian): 14 µM
- TGI (OVCAR-8 ovarian): 49.9 µM
- GI50 (MOLT-4 leukemia): 2.16 µM
- TGI (MOLT-4 leukemia): 8.35 µM
- GI50 (SF-295 CNS): 29.2 µM
- TGI (SF-295 CNS): 87.2 µM
- GI50 (SF-268 CNS): 10.5 µM
- TGI (SF-268 CNS): 35.9 µM
- GI50 (NCI/ADR-RES ovarian): 19.3 µM
- TGI (NCI/ADR-RES ovarian): 94.5 µM
- GI50 (NCI-H460 lung): 12.3 µM
- TGI (NCI-H460 lung): 32.7 µM
- GI50 (786-0 renal): 2.21 µM
- TGI (786-0 renal): 6.09 µM
- GI50 (HT29 colon): 1.72 µM
- TGI (HT29 colon): 3.44 µM
- GI50 (OVCAR-3 ovarian): 1.67 µM
- TGI (OVCAR-3 ovarian): 3.22 µM
- GI50 (RPMI-8226 leukemia): 2.75 µM
- GI50 (SNB-75 CNS): 12.3 µM
- TGI (SNB-75 CNS): 24.8 µM
- GI50 (SR leukemia): 1.41 µM
- TGI (SR leukemia): 5.19 µM
- GI50 (MALME-3M melanoma): 1.87 µM
- TGI (MALME-3M melanoma): 3.69 µM
- GI50 (BT-549 breast): 3.36 µM
- TGI (BT-549 breast): 12.7 µM
- GI50 (ACHN renal): 1.67 µM
- TGI (ACHN renal): 3.09 µM
- GI50 (RXF 393 renal): 1.89 µM
- TGI (RXF 393 renal): 3.74 µM
- GI50 (HOP-92 NSCLC): 2.23 µM
- TGI (HOP-92 NSCLC): 6.92 µM
- GI50 (HL-60(TB) leukemia): 1.55 µM
- TGI (HL-60(TB) leukemia): 4.85 µM
- GI50 (HCT-15 colon): 1.86 µM
- TGI (HCT-15 colon): 5.87 µM
- GI50 (OVCAR-5 ovarian): 12.5 µM
- TGI (OVCAR-5 ovarian): 26 µM
- GI50 (HCT-116 colon): 1.28 µM
- TGI (HCT-116 colon): 2.61 µM
- GI50 (UACC-62 melanoma): 9.85 µM
- TGI (UACC-62 melanoma): 23.2 µM
- GI50 (SNB-19 CNS): 20.5 µM
- TGI (SNB-19 CNS): 57.9 µM
- GI50 (A549 NSCLC): 24.6 µM
- TGI (A549 NSCLC): > 100 µM
- GI50 (SN12C renal): 10.4 µM
- TGI (SN12C renal): 24.2 µM
- GI50 (UACC-257 melanoma): 4.58 µM
- TGI (UACC-257 melanoma): 17.5 µM
- GI50 (TK-10 renal): 7.32 µM
- TGI (TK-10 renal): 19.7 µM
